Data as given in patent US20240398806A1, “Compositions For and Methods of Treating and/or Preventing Pain” (Duke University, priority 2021, published 2024).

Experiments:
NTSR2 = molecular target: T1, NTSR2 (Homo sapiens, UniProt O95665); assay: Cellular assay of β-arrestin-2 translocation in cells expressing NTSR2; format: cell-based
T1 construct: expressed in transfected cells; host or cells: HEK293 cells
Method: First, using cellular assays, whether IND candidates such as SBI-810 are similar or better than SBI-553 as β-arrestin biased agonist at NTSR1. is assessed. The chemical entities used in this work were synthesized and validated. However, routine validation of the profile of these compounds is performed routinely using both cellular and in vivo assays. For example, HEK293 cells that express either the NTSR1 or NTSR2 are used to assess the functional profile of the various chemical probes. In addition, a series of genetically engineered mouse lines are used to provide an in vivo validation of novel chemical entities for their abilities to module behaviors in these animals.
Fourth, cellular assays are used to establish that IND ready analogs like SBI-810 are still selective for the NTSR1 rather than NTSR2. The specificity of the lead compounds toward NTSR1. NTSR2. and β-arrestin-2 are tested in respective cellular assays. More specifically, cells expressing either NTSR1 or NTSR2 are used to assess the function of various compound. […] This translocation is not observed in cells expressing NTSR2.
Fourth, genetically engineered mice are used to assess the effects and mechanisms of novel ligands. The specificity of the lead compounds toward NTSR1, NTSR2, and β-arrestin-2 dependent signaling is examined. […]

[1] = Whole body plethysmography (respiratory depression); format: in vivo, mice
Text: Third, plethysmography is used to examine whether SBI-553 and IND ready analog SBI-810 can be administered to mice intraperitoneally, intravenously, or intrathecally without respiratory depression. Using plethysmography determine whether SBI-553 and IND ready analog SBI-810 can be administered to mice (e.g., C57BL6J) intraperitonially, intravenously, or intrathecally without respiratory depression. […] The “Buxco FinePointe Whole Body Plethysmography 4-Site System” was used to assess whether any IND analogs like the SBI-810 in the same system following intraperitoneal, intravenous, or intrathecal administration. Here. C57BL6J mice are assessed using UWBP, a technique that provides a, non-invasive, quantitative means to assess and analyze respiratory parameters. This will include tidal volume, minute volume, inspiratory duty cycle, inspiratory flow rate and the ratio of inspiration time to expiration time using a repeated measures approach to determine lung function on the same animal under multiple treatment conditions.

NTSR1 [2] = molecular target: T2, NTSR1 (Homo sapiens, UniProt P30989); assay: [3H]SBI-553 saturation binding to NTSR1-containing HEK293T cell membranes; set-up: expressed in transfected cells; host or cells: HEK293T cell membranes; settings: below 400 nM
[3] = Central blood pressure (systolic ventricular pressure) in anesthetized mice; format: in vivo, C57BL/6J mice; settings: 12 mg/kg, i.p.
Method: SBI-553 treatment was not associated with hypothermia or hypotension. In addition to modulating motivated behavior. […] SBI-553 (at 2-30 mg/kg, i.p.) had no effect on core body temperature (FIG. 6B). […] This was an effect not secondary to hypothermia as body temperature was maintained by thermal support. These findings indicate that a Gq protein-dependent mechanism mediates NTSR1-associated side effects and is not engaged by SBI-553. Consistent with an antagonist like action at NTSR1.

NTSR1 [4] = molecular target: T2, NTSR1; assay: [3H]NTS saturation binding to NTSR1-containing HEK293T cell membranes in absence and presence of SBI-553; set-up: expressed in transfected cells; host or cells: HEK293T cell membranes
Text: FIG. 4A-FIG. 4D show SBI-553 activates NTSR1 to stimulate β-arrestin-associated cellular responses.
Preliminary studies provided significant data for this example. SBI-553 was derived from a medicinal chemistry campaign to improve the ML314 probe series and was selected for potency, pharmacokinetic profile, and selectivity for NTSR1 over the NTSR2 (Pinkerton A B, et al. (2019) J Med Chem. 62(17):8357-8363, which is incorporated by reference for its teachings of the making of SBI-553). […] Binding specificity to NTSR1 was further confirmed by comparing membranes containing an off-target receptor (i.e., b2-adrenergic receptor) (Slosky L M, et al. (2020) Cell. 181(6):1364-1379e14). […] These findings indicate that SBI-553 is a β-arrestin-biased ligand that stimulates β-arrestin-mediated processes at NTSR1 […] without activating Gq protein signaling (FIG. 5).

[5] = Paclitaxel (PTX)-induced mechanical allodynia, von Frey paw withdrawal threshold; settings: i.t., 1 mg≈2 nmol as printed

T2 sequence (P30989 whole entry): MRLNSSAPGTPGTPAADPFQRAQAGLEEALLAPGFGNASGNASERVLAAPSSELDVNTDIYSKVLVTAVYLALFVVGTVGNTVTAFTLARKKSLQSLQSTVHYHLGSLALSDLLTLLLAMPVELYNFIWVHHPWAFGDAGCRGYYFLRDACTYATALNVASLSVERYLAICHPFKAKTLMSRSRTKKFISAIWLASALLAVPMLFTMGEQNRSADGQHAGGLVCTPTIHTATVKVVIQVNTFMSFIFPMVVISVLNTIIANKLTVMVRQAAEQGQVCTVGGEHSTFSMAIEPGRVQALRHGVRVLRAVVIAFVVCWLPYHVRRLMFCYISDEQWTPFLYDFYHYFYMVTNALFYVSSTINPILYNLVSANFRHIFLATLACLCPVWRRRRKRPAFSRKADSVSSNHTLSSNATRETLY
T1 sequence (O95665 whole entry, species assumed): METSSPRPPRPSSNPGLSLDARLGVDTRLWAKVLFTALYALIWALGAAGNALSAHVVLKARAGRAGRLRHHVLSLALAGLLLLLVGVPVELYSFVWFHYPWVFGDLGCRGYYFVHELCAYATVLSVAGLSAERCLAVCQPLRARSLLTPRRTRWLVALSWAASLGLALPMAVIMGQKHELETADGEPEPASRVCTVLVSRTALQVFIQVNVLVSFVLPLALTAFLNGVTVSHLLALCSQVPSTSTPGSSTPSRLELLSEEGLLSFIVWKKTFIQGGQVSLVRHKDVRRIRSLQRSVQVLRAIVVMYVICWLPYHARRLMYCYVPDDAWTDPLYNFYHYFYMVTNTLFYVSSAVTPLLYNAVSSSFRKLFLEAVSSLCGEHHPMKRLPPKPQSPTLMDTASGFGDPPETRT

## COc1ccccc1C1CCN(c2nc(C3(F)CC3)nc3ccc(N(C)CCO)cc23)CC1 [SBI-553]
NTSR2
  Translocation of β-arrestin-2 to intracellular compartments: not observed
[1]; on its own
  Breathing frequency or tidal volume: had no effect
[1]; with morphine
  Reduction in breathing frequency or tidal volume produced by morphine: did not exacerbate
NTSR1 [2]
  Specific [3H]SBI-553 binding as share of total binding: ~50%
[3]
  Hemodynamic parameters versus vehicle: no differences
NTSR1 [4]
  Effect on total [3H]NTS binding: increased
NTSR1 [4]; dose-dependent
  Increase of NTS affinity for NTSR1 (Kd): up to 3.9 fold
  Increase of number of available [3H]NTS binding sites (Bmax): up to 3.3 fold
[5]
  Duration of reduction of mechanical allodynia: > 24 h
[5]; four weeks after PTX
  PTX-induced mechanical allodynia (increased PWT) versus vehicle: significant reduction of mechanical allodynia
